From patent US20220023273A1, “METHODS FOR TREATING SYMPTOMS AND DISORDERS ASSOCIATED WITH LYSOSOMAL STORAGE DISEASES” (GENZYME CORPORATION, priority 2019, published 2022)
“And” between values parts separate entries of the source, which are not always exact repeats. Equal entries are not always repeated.

Key:
Type in all cases: in vivo, human
[1] = system: glucosylceramide (GL-1), glucosylsphingosine (lyso-GL1); experiment: GD3 clinical study: CSF and plasma biomarkers GL-1 and lyso-GL1; details: GD3, 15 mg/day oral + imiglucerase
Procedure: (§1) During the study patients were evaluated for safety and tolerability, CSF and plasma biomarkers (glucosylceramide, GL-1; glucosylsphingosine, lyso-GL1), pharmacokinetics, markers for systemic disease (spleen and liver volume measured by magnetic resonance imaging (MRI), platelet count, hemoglobin levels), indicia of interstitial lung disease (high resolution pulmonary computed tomography (CT)), and horizontal saccadic eye movement.
At baseline, the mean (±SD) GL-1 concentration in CSF was 7.1±2.8 ng/mL (range 4.4-11.1 ng/mL), while the mean (±SD) lyso-GL-1 concentration in CSF was 39.3±22.9 pg/mL (range 20.1-67.6 pg/mL). For comparison, the healthy GL-1 concentration in CSF is 4.5-5.9 ng/mL, and the healthy level of lyso-GL-1 in CSF is less than 5.0 pg/mL.

[2] = system: adult patients with Gaucher disease Type 3; experiment: GD3 clinical study: horizontal and vertical saccadic eye movements; details: GD3, 15 mg/day oral + imiglucerase
Procedure: as §1
Quantification of horizontal and vertical saccadic eye movements (HSEM and VSEM, respectively) was performed in all 5 patients. In the five patients, mean peak velocity (PV) of horizontal rightward 150 saccades was 50.8°/s (+/−8.1°/s) at baseline and […] (+/−12.6°/s) at Week 26: and the mean PV of horizontal leftward 150 saccades was 44.7°/s (+/−17.9°/s) at baseline and 32.3°/s (+/−15.9°/s) at Week 26. […]
At 52 weeks, quantification of horizontal and vertical saccadic eye movements was performed in all six patients in a similar manner as described in section (A). However, it was determined that the methodology used to account for noise (e.g., caused by blinking or head movements) may have introduced bias into the results. The method of accounting for noise was therefore modified, and a set of control criteria were developed to assess validity of the datasets obtained by the eye movement reader.

[3] = system: adult patients with Gaucher disease Type 3; experiment: GD3 clinical study: trail making test (TMT); details: GD3, 15 mg/day oral + imiglucerase
Excerpt: The trail making test (TMT) was used to evaluate cognitive function in the patients. The TMT is one of the most widely used neuropsychological tests and is included in most test batteries. The TMT is a diagnostic tool to assess general intelligence and cognitive dysfunctions (Tombaugh et al. [2004]; Cavaco et al. [2013]). In part A of the TMT, subjects are asked to connect a cluster of numbers in ascending order. This task is a combination of visual search and general visual and motor processing speed. Part B presents a sequence which alternates between numbers and letters. Subjects must actively switch between both categories when connecting them in ascending, but alternating order.
TMT-A evaluates mainly perceptual and psychomotor speed. TMT-B assesses more specifically mental flexibility and shifting abilities. TMT B minus TMT A score is used to remove the variance attributable to the graphomotor and visual scanning components of TMT A. This derived score reflects the unique task requirements of TMT B.

[4] = GD3 clinical study: safety and tolerability; details: GD3, 15 mg/day oral + imiglucerase
Procedure: as §1

[5] = Phase 1 Study 1 Part 1: ascending single-dose pharmacokinetics; details: healthy men, fasted
Excerpt: Study 1 was a 2-part single-center trial in healthy adult male volunteers.
Part 1 of the study enrolled and randomized 55 healthy men (placebo, n=14; 2-, 5-, 15, 25-, 50, and 100-mg doses, n=6 each; 150-mg dose, n=5). Eight healthy men participated in Part 2.
After a 7-day washout period, participants were crossed over to the other condition.

[6] = Phase 1 Study 2: ascending repeated-dose pharmacokinetics
[7] = Phase 1 studies: safety profile
Procedure: In all studies, safety profile was assessed by monitoring treatment-emergent adverse events (TEAEs) through 10 days after last dose of study medication, including serious adverse events [SAEs]), ECG monitoring, laboratory values, and physical examinations.

plasma GL-3 = experiment: Fabry: matched comparison with historical phase 3 trial of agalsidase beta; details: Fabry males, 15 mg/day oral
Excerpt: Mean ages were similar across the three groups.

[8] = healthy adults, 5 mg once daily, Day 14
[9] = repeated once-daily doses from 5-20 mg
[10] = healthy volunteers, all Phase 1 studies

CC(C)(NC(=O)O[C@@H]1CN2CCC1CC2)c1csc(-c2ccc(F)cc2)n1 [Compound 2, (S)-quinuclidin-3-yl (2-(2-(4-fluorophenyl)thiazol-4-yl)propan-2-yl)carbamate]
plasma and CSF biomarkers for GD-3 ([1]; 26 weeks): significant improvements | plasma and CSF biomarkers for GD-3 ([1]; 52 weeks): sustained significant improvements | VSEM measurements ([2]; between baseline and week 26): stable | changes in HSEM ([2]; over the 26-week treatment period): no clinically meaningful changes | TMT-A-TMT-B ([3]; Week 52, individual patients 1-6): 20 s | patients with a TMT-A reduction, excluding Patient 5 ([3]; Week 52): four of five | patients with a TMT-B reduction, excluding Patient 5 ([3]; Week 52): five of five | patients with a reduction in the (TMT B-TMT A) time ([3]; Week 52): 5 of 6 | patients with an improvement in Trail B minus Trial A, excluding Patient 5 ([3]; Week 52): four of five | patients with reduction in time taken to complete Trail A ([3]; Week 52): Four of six | patients with reduction in time taken to complete Trail B ([3]; Week 52): six of six | TMT-A-TMT-B, Change (%) from Baseline to Week 52 ([3]; individual patients 1-6): −72% and −43% | treatment-emergent adverse events ([4]; 26 weeks, all 5 patients): no serious or lasting treatment-emergent adverse events | total treatment-emergent adverse events reported ([4]; 52 weeks, six patients): 30 | severity of treatment-emergent adverse events ([4]; 52 weeks, six patients, none considered related to treatment): mild or moderate in severity | CL/F, Geometric mean ([5]; single oral 2 mg): 6.3 L/h | CL/F, Geometric mean ([5]; single oral 5 mg): 5.8 L/h | CL/F, Geometric mean ([5]; single oral 15 mg): 5.6 L/h | CL/F, Geometric mean ([5]; single oral 25 mg): 5.0 L/h | CL/F, Geometric mean ([5]; single oral 50 mg): 5.5 L/h | CL/F, Geometric mean ([5]; single oral 100 mg): 5.3 L/h | CL/F, Geometric mean ([5]; single oral 150 mg): 5.6 L/h | CL/F, Mean ([5]; single oral 150 mg): 5.80 L/h | AUC0-24, Geometric mean (CV) [6, 8]: 632 (19) ng · h/mL | AUC0-24, Mean (SD) [6, 8]: 642 (121) ng · h/mL | tmax, median (range) ([6]; healthy adults, 10 mg once daily, Day 1): 3.00 (2.00-5.00) h | tmax, median (range) ([6]; healthy adults, 20 mg once daily, Day 14): 3.00 (2.00-8.00) h | Ctrough values ([6]; healthy adults, 5, 10, or 20 mg once daily for 14 days): reached a plateau after Day 5 | effect of age and gender on accumulation [6, 9]: neither age nor gender affected accumulation | time to steady state [6, 9]: ≤ 5 days | Vital signs [7, 10]: no relevant changes from baseline | deaths, SAEs, severe TEAEs, discontinuations [7, 10]: no deaths, SAEs, severe TEAEs, or TEAEs leading to study discontinuation | hematologic or biochemical abnormalities [7, 10]: No clinically relevant hematologic or biochemical abnormalities | ECG parameters ([7]; single ascending dose and food effect studies): no relevant changes | reduction in plasma GL-3 (plasma GL-3; 26 weeks, matched comparison to placebo (−1.06 μg/mL, P<0.0001)): -3.62 µg/mL | plasma GL-3 reduction compared to agalsidase beta (plasma GL-3; 104 weeks (p=0.0351) and 156 weeks (p=0.0081)): significantly greater
